{"source": "patent US20260250316A1", "about": "“CRYSTALLINE FORMS OF A MACROCYCLIC PEPTIDE ANTIBIOTIC” (Hoffmann-La Roche Inc., priority 2022, published 2026)", "key": {"[1]": {"assay": "physchem", "conditions": "water, approximately 1 g equilibrated in 8.5 mL of water at 20° C. for 2 days, centrifuged, uPLC", "description": "Approximately 1 g of substance was equilibrated in 8.5 mL of water at 20° C. for 2 days. 1 mL of suspension was centrifuged. The filtrate was analyzed by uPLC."}}, "data": [{"compound": "CN1C(=O)[C@H](CCCCN)NC(=O)[C@H](CCCN)NCc2cccnc2Sc2cccc(-c3ccc(C(=O)O)cc3)c2CNC(=O)[C@@H]1Cc1c[nH]c2ccccc12.Cl", "note": "[Amorphous HCl salt, 4-[(11S,14S,17S)-14-(4-Aminobutyl)-11-(3-aminopropyl)-17-(1H-indol-3-ylmethyl)-16-methyl-12,15,18-trioxo-2-thia-4,10,13,16,19-pentazatricyclo[19.4.0.03,8]pentacosa-1(25),3(8),4,6,21,23-hexaen-22-yl]benzoic acid, mono hydrochloric acid salt]", "values": [{"measurement": "Solubility", "setting": "approximately 1 g equilibrated in 8.5 mL of water at 20° C. for 2 days, centrifuged, uPLC", "result": 177.6, "unit": "mg/mL"}]}, {"compound": "CN1C(=O)[C@H](CCCCN)NC(=O)[C@H](CCCN)NCc2cccnc2Sc2cccc(-c3ccc(C(=O)O)cc3)c2CNC(=O)[C@@H]1Cc1c[nH]c2ccccc12.Cl", "note": "[Form A family HCl salt]", "values": [{"measurement": "solubility at 2 days", "setting": "[1]", "result": 124, "unit": "mg/mL"}]}, {"compound": "CN1C(=O)[C@H](CCCCN)NC(=O)[C@H](CCCN)NCc2cccnc2Sc2cccc(-c3ccc(C(=O)O)cc3)c2CNC(=O)[C@@H]1Cc1c[nH]c2ccccc12", "note": "[Form A family free zwitterion]", "values": [{"measurement": "solubility at 2 days", "setting": "[1]", "result": "< 1", "unit": "mg/mL"}]}, {"compound": "CN1C(=O)[C@H](CCCCN)NC(=O)[C@H](CCCN)NCc2cccnc2Sc2cccc(-c3ccc(C(=O)O)cc3)c2CNC(=O)[C@@H]1Cc1c[nH]c2ccccc12.Cl", "note": "[HCl salt, 4-[(11S,14S,17S)-14-(4-Aminobutyl)-11-(3-aminopropyl)-17-(1H-indol-3-ylmethyl)-16-methyl-12,15,18-trioxo-2-thia-4,10,13,16,19-pentazatricyclo[19.4.0.03,8]pentacosa-1(25),3(8),4,6,21,23-hexaen-22-yl]benzoic acid]", "values": [{"measurement": "Solubility compared to the free base (in words)", "setting": "especially in aqueous media", "result": "dramatically increased solubility compared to the free base"}]}, {"compound": "CN1C(=O)[C@H](CCCCN)NC(=O)[C@H](CCCN)NCc2cccnc2Sc2cccc(-c3ccc(C(=O)O)cc3)c2CNC(=O)[C@@H]1Cc1c[nH]c2ccccc12", "note": "[free base, 4-[(11S,14S,17S)-14-(4-Aminobutyl)-11-(3-aminopropyl)-17-(1H-indol-3-ylmethyl)-16-methyl-12,15,18-trioxo-2-thia-4,10,13,16,19-pentazatricyclo[19.4.0.03,8]pentacosa-1(25),3(8),4,6,21,23-hexaen-22-yl]benzoic acid]", "values": [{"measurement": "Solubility in water (in words)", "setting": "water", "result": "hardly soluble in water"}]}]}
